Data: patent US7709466B2, “Pyridazinone derivatives, methods for their production and their use as pharmaceuticals” (Sanofi-Aventis Deutschland GmbH, priority 2004, dated 2010)
pIC50: −log10 of the molar value.

target: GSK-3β (Homo sapiens, UniProt P49841); assay: GSK-3β activity, AlphaScreen technology, determination of IC50-values; format: biochemical; details: human recombinant enzyme, primed glycogen synthase substrate peptide, 10 μM ATP, 60 min at room temperature, triplicate; read-out: GSK3β (μmol)
Experimental: Functional Measurements for Determination of IC50-Values
GSK-3βGSK-β activity is measured using human recombinant GSK-β and a primed (pre-phosphorylated) substrate peptide (derived from glycogen synthase and containing the phosphorylation sites 3a, b, and c) on basis of the AlphaScreen technology in 384-well plate format (small volume plate, white, GREINER). In a final volume of 11 μl, 2 μl of compound (1 nM-[…] in kinase buffer, DMSO (dimethylsulfoxide) kept constant at 0.9%), 2 μl of GSK-βsolution (0.18 nM) and 2 μl of biot. phospho-glycogen synthase peptide (34 nM) in kinase buffer (20 mM Hepes, pH 7.4, 10 mM MgCl2, […] (ethylenediaminotetraacetate), 1 mM DTT (dithiotriol), 0.1 mg/ml BSA (bovine serum albumin), 10 μM ATP (adenosinetriphosphate)) are incubated at room temperature for 60 min.

GSK-3β, sequence (P49841 whole entry): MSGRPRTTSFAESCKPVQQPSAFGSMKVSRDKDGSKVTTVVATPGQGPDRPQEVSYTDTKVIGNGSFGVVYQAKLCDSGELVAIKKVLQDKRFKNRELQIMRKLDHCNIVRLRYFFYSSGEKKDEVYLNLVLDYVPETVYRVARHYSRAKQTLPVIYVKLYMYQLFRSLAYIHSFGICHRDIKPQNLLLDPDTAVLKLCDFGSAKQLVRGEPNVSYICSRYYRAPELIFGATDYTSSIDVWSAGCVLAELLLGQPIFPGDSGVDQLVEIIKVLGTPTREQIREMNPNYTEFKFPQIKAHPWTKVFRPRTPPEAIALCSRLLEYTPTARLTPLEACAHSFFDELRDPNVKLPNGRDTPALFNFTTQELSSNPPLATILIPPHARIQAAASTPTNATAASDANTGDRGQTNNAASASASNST

Row | pIC50 | Compound
1 | 6.23 | Cc1cc(-c2cc(-c3cc4ccccc4[nH]3)c(=O)[nH]n2)cc(C)c1O [Example 6, 6-(4-Hydroxy-3,5-dimethyl-phenyl)-4-(1H-indol-2-yl)-2H-pyridazin-3-one]
2 | 6.99 | O=c1[nH]nc(-c2ccncc2)cc1-c1[nH]c2ccccc2c1CN1CCOCC1 [Example 11, 4-(3-Morpholin-4-ylmethyl-1H-indol-2-yl)-6-pyridin-4-yl-2H-pyridazin-3-one]
3 | 7.60 | O=c1[nH]nc(-c2ccncc2)cc1-c1[nH]c2ccccc2c1Cl [Example 26, 4-(3-Chloro-1H-indol-2-yl)-6-pyridin-4-yl-2H-pyridazin-3-one]
4 | 8.40 | O=c1[nH]nc(-c2ccncc2)cc1-c1cc2ccc(CN3CCN(C4CC4)CC3)cc2[nH]1 [Example 65, 4-[6-(4-Cyclopropyl-piperazin-1-ylmethyl)-1H-indol-2-yl]-6-pyridin-4-yl-2H-pyridazin-3-one]
5 | 8.00 | O=C(O)[C@@H]1CCCN1Cc1ccc2cc(-c3cc(-c4ccncc4)n[nH]c3=O)[nH]c2c1 [Example 74, (S)-1-[2-(3-Oxo-6-pyridin-4-yl-2,3-dihydro-pyridazin-4-yl)-1H-indol-6-ylmethyl]-pyrrolidine-2-carboxylic acid]
6 | 7.85 | O=c1[nH]nc(-c2ccncc2)cc1-c1cc2ccc(CNC3CC3)cc2[nH]1 [Example 87, 4-(6-Cyclopropylaminometh-yl-1H-indol-2-yl)-6-pyridin-4-yl-2H-pyridazin-3-one]
7 | 7.92 | CN(Cc1ccc2cc(-c3cc(-c4ccncc4)n[nH]c3=O)[nH]c2c1)C1CCN(C2CC2)CC1 [Example 89, 4-(6-{[(1-Cyclopropyl-piperidin-4-yl)-methyl-amino]-methyl}-1H-indol-2-yl)-6-pyridin-4-yl-2H-pyridazin-3-one]
8 | 8.15 | COc1ccc2[nH]c(-c3cc(-c4ccncc4)n[nH]c3=O)cc2n1 [Example 116, 4-(5-Methoxy-1H-pyrrolo[3,2-b]pyridin-2-yl)-6-pyridin-4-yl-2H-pyridazin-3-one]
9 | 7.96 | O=c1[nH]nc(-c2ccncc2)cc1-c1[nH]c2ccccc2c1C1CC1 [Example 118, 4-(3-Cyclopropyl-1H-indol-2-yl)-6-pyridin-4-yl-2H-pyridazin-3-one]
10 | 5.82 | Cn1cc(-c2cc(-c3cc4ccccc4[nH]3)c(=O)[nH]n2)cn1 [Example 126, 4-(1H-Indol-2-yl)-6-(1-methyl-1H-pyrazol-4-yl)-2H-pyridazin-3-one]
11 | 8.15 | Cn1cc(-c2c(-c3cc(-c4ccncc4)n[nH]c3=O)[nH]c3ccccc23)cn1 [Example 133, 4-[3-(1-Methyl-1H-pyrazol-4-yl)-1H-indol-2-yl]-6-pyridin-4-yl-2H-pyridazin-3-one]
12 | 5.70 | O=c1[nH]nc(-c2ccn[nH]2)cc1-c1cc2ccccc2[nH]1 [Example 147, 4-(1H-Indol-2-yl)-6-(2H-pyrazol-3-yl)-2H-pyridazin-3-one]
13 | 7.68 | CN1CCN(Cc2ccc3cc(-c4cc(-c5cccc(O)c5)n[nH]c4=O)[nH]c3c2)CC1 [Example 156, 6-(3-Hydroxy-phenyl)-4-[6-(4-methyl-piperazin-1-ylmethyl)-1H-indol-2-yl]-2H-pyridazin-3-one]
14 | 7.74 | CC(NC1CCN(C2CC2)CC1)c1ccc2cc(-c3cc(-c4ccncc4)n[nH]c3=O)[nH]c2c1 (stereo not shown) [Example 165, 4-{6-[1-(1-Cyclopropyl-piperidin-4-ylamino)-ethyl]-1H-indol-2-yl}-6-pyridin-4-yl-2H-pyridazin-3-one]
15 | 7.11 | Cc1cc(-c2cc(-c3[nH]c4ccccc4c3-c3c[nH]c(=O)[nH]c3=O)c(=O)[nH]n2)cc(C)c1O [Example 176, 5-{2-[6-(4-Hydroxy-3,5-dimethyl-phenyl)-3-oxo-2,3-dihydro-pyridazin-4-yl]-1H-indol-3-yl}-1H-pyrimidine-2,4-dione]
16 | 7.74 | Cc1cc(-c2cc(-c3cc4ncccc4[nH]3)c(=O)[nH]n2)cc(C)c1O [Example 180, 6-(4-Hydroxy-3,5-dimethyl-phenyl)-4-(1H-pyrrolo[3,2-b]pyridin-2-yl)-2H-pyridazin-3-one]
